Laboratory results from patent publication EP2366431A1, “Myeloperoxidase as a target in atrial fibrillation” (Universitätsklinikum Hamburg-Eppendorf, priority 2010, dated 2011).

Key:
WT mice = assay: MPO content in mouse plasma and atrial tissue (ELISA) after angiotensin II infusion; assay type: in vivo; details: 2 week subcutaneous infusion of AngII
Protocol: (§1) Angiotensin II and myeloperoxidase treatment of mice. We treated male C57BL/6J (WT) and MPOtmllus mice (Mpo^-/^-) on a C57BL/6 background, aged 12-15 weeks, via ALZET osmotic pumps with angiotensin II (AngII, 1.5 ng/g body weight/minute) or saline (vehicle) for 14 days prior to electrophysiological investigation (EPI). We treated another cohort of WT and Mpo^-/- mice via ALZET osmotic pumps with a connected jugular catheter with recombinant MPO (5.0, 12.5 and 50 pg/g body weight/minute, which we calculated to generate physiological plasma levels of MPO ranging between 100 and 1100 pM, respectively) or recombinant human serum albumin (HSA) for 7 days in combination with either AngII or saline prior to EPI. Animal experiments, conformed with the Guide for the Care and Use of Laboratory Animals published by the US National Institutes of Health and were approved by the review board of Hamburg and Bonn.
Assessment of MPO content in human and mouse plasma and atrial tissue. We determined MPO levels by ELISA (human: Prognostix, Cleveland, USA; mouse: hycult biotechnology, The Netherlands).

WT and Mpo^-/- mice [1] = assay: Electrophysiological investigation (EPI), induction of AF by right atrial stimulation, surface ECG; assay type: in vivo
Protocol: as §1
Electrophysiological investigation (EPI). We examined mice electrophysiologically using a single catheter technique ^19,32. We analyzed standard ECG-parameters obtained by a 6-lead-surface-ECG. EPI included transvenous atrial and ventricular recording and stimulation^21. For induction of AF, we performed atrial and ventricular burst and programmed atrial stimulations. We defined atrial fibrillation as rapid and fragmented atrial electrograms with irregular AV-nodal conduction for >1 s. AF-episodes persisting >1 min were classified as sustained AF. Number, duration, and probability of inducible AF-episodes were analyzed.

[2] = tested on: Langendorff perfused hearts from WT and Mpo^-/- mice; assay: Epicardial mapping of Langendorff-perfused hearts; details: atria from AngII treated Mpo^-/- mice, in contrast to AngII challenged WT mice
Protocol: as §1
Epicardial mapping of Langendorff-perfused hearts. We determined spontaneous and stimulated myocardial conduction velocities and characteristics of Langendorff perfused hearts by epicardial activation mapping using a 128-electrodearray^21.

WT and Mpo^-/- mice [3] = assay: Radiotelemetric blood pressure measurements; assay type: in vivo; details: AngII, Mpo^-/- mice compared with WT mice
Protocol: as §1
Radiotelemetric blood pressure measurements. We performed blood pressure measurements as previously^36. In brief, we inserted the tip of the telemetry device (TA11 PA-C10; Data Sciences International, St. Paul, USA) into the carotid lumen. After 10 days, data acquisition started for 1 minute every 5 minutes for 3 days. […] We recorded blood pressure and heart rate for the following week in MPO treated mice and two weeks in AngII treated animals, respectively.

With “angiotensin II (DRVYIHPF; Angiotensin-2; UniProt P01019 25-32, looked up) [AngII]” the “myocardial deposition of MPO” value (WT mice) was “elevated”, the “circulating MPO plasma levels” value (WT mice; 1.5 ng/g body weight/minute) was “substantially increased” and the “inducibility of AF” value (WT and Mpo^-/- mice [1]; Mpo^-/- mice, AngII for 14 days) was “did not affect the inducibility of AF”. For the same substance, the “susceptibility for AF (number and duration of AF-episodes, probability of AF induction)” value (WT and Mpo^-/- mice [1]; WT mice, AngII for 14 days, right atrial electrophysiological stimulation) was “higher susceptibility for AF”, the P wave duration (WT and Mpo^-/- mice [1]; WT mice, AngII treatment, in vivo surface ECG, p<0.001) was “significant prolongation” and the conduction velocity [2] was “no retardation in conduction velocity”. For the same substance, the “blood pressure elevating effect” value (WT and Mpo^-/- mice [3]) was “blunted”.
